From patent publication US20260232006A1, “EMULSIONS FOR NICOTINE ENCAPSULATION” (NICOVENTURES TRADING LIMITED, priority 2023, published 2026)

Assays:
[1] = cited from earlier work
[2] = in mixture of mono- and diglycerides of capric and caprylic acid (Capmul MCM); 48 h at 30° C.
Protocol: Samples were blanketed with nitrogen, sonicated for 30 min, then placed in a thermostatic orbital shaker and continuously shaken at 300 rpm for 48 h at 30° C.

## CC(/C=C/C=C(C)/C=C/C(=O)O)=C\C=C\C=C(C)\C=C\C=C(C)\C=C\C(=O)O (stereo in doubt) [norbixin, (2E,4E,6E,8E,10E,12E,14E,16E,18E)-4,8,13,17-tetramethylicosa-2,4,6,8,10,12,14,16,18-nonaenedioic acid]
[1]
  solubility in water: water-soluble

## COC(=O)/C=C/C(C)=C\C=C\C(C)=C\C=C\C=C(C)\C=C\C=C(C)\C=C\C(=O)O [bixin, (2E,4E,6E,8E,10E,12E,14E,16Z,18E)-20-methoxy-4,8,13,17-tetramethyl-20-oxoicosa-2,4,6,8,10,12,14,16,18-nonaenoic acid]
[1]
  solubility in fats and alcohols: soluble
  solubility in water: insoluble
[1]; isolated, isomerizes to trans-bixin
  chemical stability: chemically unstable when isolated

## CN1CCCC1c1cccnc1.O=C(O)c1ccccc1 (centres unmarked) [nicotine benzoate]
[2]
  highest nicotine benzoate solubility in oil without sedimentation: 30 % by weight
